From patent US20230139171A1 (SITA Information Networking Computing UK Limited, priority 2019, published 2023)

Columns and labels:
Type in all cases: cell-based
human TLR8 = target: T1, human TLR8 (Homo sapiens, UniProt Q9NR97); assay: TLR8 inhibition reporter assay (HEK-Blue cells, SEAP reporter, R848 stimulation); conditions: HEK-Blue cells overexpressing human TLR8, SEAP reporter, R848 15.9 μM; read-out: TLR8 IC50
T1 construct: host or cells: HEK-Blue cells
T1 sequence (Q9NR97 27-1041): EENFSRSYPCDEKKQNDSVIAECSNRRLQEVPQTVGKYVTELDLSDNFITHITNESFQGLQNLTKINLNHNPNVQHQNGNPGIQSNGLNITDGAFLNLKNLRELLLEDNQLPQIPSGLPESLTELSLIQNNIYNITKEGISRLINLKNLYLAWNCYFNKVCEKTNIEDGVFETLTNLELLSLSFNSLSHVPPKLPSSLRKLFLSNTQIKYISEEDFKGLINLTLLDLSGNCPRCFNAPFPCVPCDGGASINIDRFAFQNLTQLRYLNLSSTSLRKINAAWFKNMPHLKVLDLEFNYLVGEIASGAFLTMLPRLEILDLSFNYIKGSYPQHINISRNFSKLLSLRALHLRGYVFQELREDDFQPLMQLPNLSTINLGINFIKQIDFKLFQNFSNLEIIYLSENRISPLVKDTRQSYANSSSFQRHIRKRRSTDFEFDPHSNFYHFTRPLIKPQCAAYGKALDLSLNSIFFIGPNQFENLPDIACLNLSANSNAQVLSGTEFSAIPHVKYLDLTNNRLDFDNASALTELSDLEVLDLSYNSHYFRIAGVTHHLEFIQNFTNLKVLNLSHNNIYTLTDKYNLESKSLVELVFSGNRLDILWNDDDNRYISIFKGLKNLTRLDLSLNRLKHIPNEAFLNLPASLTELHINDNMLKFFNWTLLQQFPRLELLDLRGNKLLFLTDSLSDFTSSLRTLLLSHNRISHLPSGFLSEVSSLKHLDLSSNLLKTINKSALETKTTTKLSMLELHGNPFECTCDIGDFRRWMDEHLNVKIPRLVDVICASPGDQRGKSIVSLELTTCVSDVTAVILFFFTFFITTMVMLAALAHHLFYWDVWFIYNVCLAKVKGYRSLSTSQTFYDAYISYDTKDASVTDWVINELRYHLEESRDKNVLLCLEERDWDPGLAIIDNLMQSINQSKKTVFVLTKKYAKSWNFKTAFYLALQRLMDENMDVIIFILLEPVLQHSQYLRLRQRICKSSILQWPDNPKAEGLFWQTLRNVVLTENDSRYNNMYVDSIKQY
Outline: (§1)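 HEK-Blue cells overexpressing human TLR7, TLR8 or TLR9 carry a SEAP reporter driven by NF-κB/AP-1 sites. Compounds (0.05 nM–50 μM) were preincubated 30 min at room temperature, then cells were stimulated with gardiquimod 7.5 μM (TLR7), R848 15.9 μM (TLR8) or ODN2006 5 nM (TLR9) for 22 h at 37 °C.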

human TLR7 = target: T2, human TLR7 (Homo sapiens, UniProt Q9NYK1); assay: TLR7 inhibition reporter assay (HEK-Blue cells, SEAP reporter, gardiquimod stimulation); conditions: HEK-Blue cells overexpressing human TLR7, SEAP reporter, gardiquimod 7.5 μM; read-out: TLR7 IC50
T2 construct: host or cells: HEK-Blue cells
T2 sequence (Q9NYK1 27-1049): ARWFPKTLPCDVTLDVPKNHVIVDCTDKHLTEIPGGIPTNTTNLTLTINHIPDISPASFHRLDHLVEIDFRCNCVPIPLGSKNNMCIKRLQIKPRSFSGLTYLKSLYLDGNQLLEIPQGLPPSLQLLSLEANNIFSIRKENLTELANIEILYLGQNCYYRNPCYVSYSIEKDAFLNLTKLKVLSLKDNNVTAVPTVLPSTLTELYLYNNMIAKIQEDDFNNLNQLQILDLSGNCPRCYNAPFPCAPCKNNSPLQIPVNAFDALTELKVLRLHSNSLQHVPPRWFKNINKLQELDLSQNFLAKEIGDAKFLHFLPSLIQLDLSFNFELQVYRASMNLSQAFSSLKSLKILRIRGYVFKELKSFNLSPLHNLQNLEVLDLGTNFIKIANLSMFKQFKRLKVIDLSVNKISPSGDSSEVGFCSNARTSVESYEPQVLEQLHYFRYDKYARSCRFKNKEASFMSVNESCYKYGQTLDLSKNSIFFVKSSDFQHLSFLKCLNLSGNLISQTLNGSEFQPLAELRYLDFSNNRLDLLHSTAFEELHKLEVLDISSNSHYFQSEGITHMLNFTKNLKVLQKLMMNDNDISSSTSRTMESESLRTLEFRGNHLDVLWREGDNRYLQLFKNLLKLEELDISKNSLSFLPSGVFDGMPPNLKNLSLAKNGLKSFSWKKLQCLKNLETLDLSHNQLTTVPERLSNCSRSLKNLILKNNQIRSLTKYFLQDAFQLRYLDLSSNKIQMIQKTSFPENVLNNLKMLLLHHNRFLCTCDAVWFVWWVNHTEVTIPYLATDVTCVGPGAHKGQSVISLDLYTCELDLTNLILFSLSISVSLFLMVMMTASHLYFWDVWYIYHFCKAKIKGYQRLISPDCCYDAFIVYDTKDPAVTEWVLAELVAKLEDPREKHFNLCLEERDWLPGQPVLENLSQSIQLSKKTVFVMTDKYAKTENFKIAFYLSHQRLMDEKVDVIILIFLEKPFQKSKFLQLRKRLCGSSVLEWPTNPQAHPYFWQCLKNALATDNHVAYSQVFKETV
Outline: as §1

human TLR9 = target: T3, human TLR9 (Homo sapiens, UniProt Q9NR96); assay: TLR9 inhibition reporter assay (HEK-Blue cells, SEAP reporter, ODN2006 stimulation); conditions: HEK-Blue cells overexpressing human TLR9, SEAP reporter, ODN2006 5 nM
T3 construct: host or cells: HEK-Blue cells
T3 sequence (Q9NR96 26-1032): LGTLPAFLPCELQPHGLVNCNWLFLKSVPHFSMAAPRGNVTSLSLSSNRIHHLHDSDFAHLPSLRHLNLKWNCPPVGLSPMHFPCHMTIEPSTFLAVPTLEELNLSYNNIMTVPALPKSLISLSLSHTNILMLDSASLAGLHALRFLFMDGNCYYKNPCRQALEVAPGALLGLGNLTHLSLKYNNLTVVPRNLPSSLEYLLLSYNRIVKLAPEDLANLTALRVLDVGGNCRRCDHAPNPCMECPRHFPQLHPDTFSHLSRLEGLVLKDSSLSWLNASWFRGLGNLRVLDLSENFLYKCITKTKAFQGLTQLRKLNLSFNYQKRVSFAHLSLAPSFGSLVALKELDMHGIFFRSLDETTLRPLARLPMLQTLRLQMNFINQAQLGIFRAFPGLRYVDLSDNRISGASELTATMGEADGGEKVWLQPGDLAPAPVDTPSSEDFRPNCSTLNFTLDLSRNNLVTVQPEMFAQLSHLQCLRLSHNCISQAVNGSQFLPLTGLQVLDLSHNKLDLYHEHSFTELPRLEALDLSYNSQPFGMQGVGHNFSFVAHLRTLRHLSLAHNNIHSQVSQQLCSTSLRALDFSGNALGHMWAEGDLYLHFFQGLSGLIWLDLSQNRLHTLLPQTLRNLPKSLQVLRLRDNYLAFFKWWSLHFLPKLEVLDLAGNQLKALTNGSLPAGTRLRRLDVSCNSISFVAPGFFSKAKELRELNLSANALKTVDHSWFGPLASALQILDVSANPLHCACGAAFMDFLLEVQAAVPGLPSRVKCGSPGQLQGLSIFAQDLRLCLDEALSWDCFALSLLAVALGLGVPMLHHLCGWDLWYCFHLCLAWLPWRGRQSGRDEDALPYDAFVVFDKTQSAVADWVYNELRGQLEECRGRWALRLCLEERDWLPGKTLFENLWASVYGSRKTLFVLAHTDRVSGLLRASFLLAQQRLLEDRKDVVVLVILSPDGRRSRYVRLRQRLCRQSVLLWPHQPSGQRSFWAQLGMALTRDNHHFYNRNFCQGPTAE
Outline: as §1

IC50 (human TLR8)	IC50 (human TLR7)	IC50 (human TLR9)	SMILES
413 nM	442 nM	7.21 µM	Cc1cc(-c2[nH]c3sc(C4CCN(C5CCOCC5)CC4)nc3c2C(C)C)cc(C)n1 [Example 26, 5-(2,6-dimethylpyridin-4-yl)-6-isopropyl-2-(1-(tetrahydro-2H-pyran-4-yl)piperidin-4-yl)-4H-pyrrolo[3,2-d]thiazole]
2.87 nM	29.7 nM	0.388 µM	Cc1cc(-c2[nH]c3sc(C4CCN(CC5(C)COC5)CC4)nc3c2C(C)C)cc(C)n1 [Example 27, 5-(2,6-dimethylpyridin-4-yl)-6-isopropyl-2-(1-((3-methyloxetan-3-yl)methyl)piperidin-4-yl)-4H-pyrrolo[3,2-d]thiazole]
265 nM	39 nM	0.645 µM	Cc1cc(-c2[nH]c3sc(C4CCN(C(=O)CN(C)C)CC4)nc3c2C(C)C)cc(C)n1 [Example 28, 2-(dimethylamino)-1-(4-(5-(2,6-dimethylpyridin-4-yl)-6-isopropyl-4H-pyrrolo[3,2-d]thiazol-2-yl)piperidin-1-yl)ethan-1-one]
1.91 nM	18.4 nM	0.216 µM	Cc1cc(-c2[nH]c3sc(C4CCN(CC(C)(C)O)CC4)nc3c2C(C)C)cc(C)n1 [Example 29, 1-(4-(5-(2,6-dimethylpyridin-4-yl)-6-isopropyl-4H-pyrrolo[3,2-d]thiazol-2-yl)piperidin-1-yl)-2-methylpropan-2-ol]
2.07 nM	4.37 nM	14.8 µM	CC(C)c1c(-c2cn(C)c3ncccc23)[nH]c2sc(C3CCN(CC(=O)N(C)C)CC3)nc12 [Example 30, 2-(4-(6-isopropyl-5-(1-methyl-1H-pyrrolo[2,3-b]pyridin-3-yl)-4H-pyrrolo[3,2-d]thiazol-2-yl)piperidin-1-yl)-N,N-dimethylacetamide]
0.79 nM	2.77 nM	4.35 µM	CC(C)c1c(-c2cn(C)c3ncccc23)[nH]c2sc(C3CCN(C4CCOCC4)CC3)nc12 [Example 35, 6-isopropyl-5-(1-methyl-1H-pyrrolo[2,3-b]pyridin-3-yl)-2-(1-(tetrahydro-2H-pyran-4-yl)piperidin-4-yl)-4H-pyrrolo[3,2-d]thiazole]
1540 nM	1300 nM	25.2 µM	CC(C)c1c(-c2cn(C)c3ncccc23)[nH]c2sc(C3CCN(C(C)C)CC3)nc12 [Example 36, 6-isopropyl-2-(1-isopropylpiperidin-4-yl)-5-(1-methyl-1H-pyrrolo[2,3-b]pyridin-3-yl)-4H-pyrrolo[3,2-d]thiazole]
27 nM	12.1 nM	27.9 µM	CC(C)c1c(-c2ccc(C#N)c3ncccc23)[nH]c2sc(C3CCN(C4COC4)CC3)nc12 [Example 37, 5-(6-isopropyl-2-(1-(oxetan-3-yl)piperidin-4-yl)-4H-pyrrolo[3,2-d]thiazol-5-yl)quinoline-8-carbonitrile]
4.43 nM	7.93 nM	2.28 µM	CC(C)c1c(-c2ccc(C#N)c3ncccc23)[nH]c2sc(C3CCN(C4CCOCC4)CC3)nc12 [Example 38, 5-(6-isopropyl-2-(1-(tetrahydro-2H-pyran-4-yl)piperidin-4-yl)-4H-pyrrolo[3,2-d]thiazol-5-yl) quinoline-8-carbonitrile]
25.5 nM	8.31 nM	3.56 µM	CC(C)c1c(-c2ccc(C#N)c3ncccc23)[nH]c2sc(C3CCN(C(=O)CN(C)C)CC3)nc12 [Example 39, 5-(2-(1-(dimethylglycyl)piperidin-4-yl)-6-isopropyl-4H-pyrrolo[3,2-d]thiazol-5-yl)quinoline-8-carbonitrile]
31.1 nM	29.9 nM	18.9 µM	CC(C)c1c(-c2ccc(C#N)c3ncccc23)[nH]c2sc(C3CCN(CC(=O)N(C)C)CC3)nc12 [Example 40, 2-(4-(5-(8-cyanoquinolin-5-yl)-6-isopropyl-4H-pyrrolo[3,2-d]thiazol-2-yl)piperidin-1-yl)-N,N-dimethylacetamide]
2.66 nM	1.19 nM	8.43 µM	Cc1c(-c2[nH]c3sc(C4CCNCC4)nc3c2C(C)C)cn2ncnc2c1C [Example 41, 5-(7,8-dimethyl-[1,2,4]triazolo[1,5-a]pyridin-6-yl)-6-isopropyl-2-(piperidin-4-yl)-4H-pyrrolo[3,2-d]thiazole]
6.77 nM	2.99 nM	19 µM	Cc1c(-c2[nH]c3sc(C4CCNCC4)nc3c2C(C)C)cn(C)c(=O)c1C [Example 42, 5-(6-isopropyl-2-(piperidin-4-yl)-4H-pyrrolo[3,2-d]thiazol-5-yl)-1,3,4-trimethylpyridin-2(1H)-one]
0.63 nM	1.68 nM	15.1 µM	Cc1c(-c2[nH]c3sc(C4CCN(C(C)C)CC4)nc3c2C(C)C)cn2ncnc2c1C [Example 44, 5-(7,8-dimethyl-[1,2,4]triazolo[1,5-a]pyridin-6-yl)-6-isopropyl-2-(1-isopropylpiperidin-4-yl)-4H-pyrrolo[3,2-d]thiazole]
